Measured values: paper PMC5435687 (Scientific Reports, 2017)

Columns and labels:
SH-SY5Y cells = assay: Aβ uptake under pharmacological inhibition of endocytic mechanisms (flow cytometry); assay type: cell-based, human; conditions: for effect of CPZ on Aβ uptake: 5 µg/ml CPZ; for reduction in Aβ uptake with cytochalasin A or D: 10 µM cytochalasin A or 25 µg/ml cytochalasin D
Description: Flow cytometry was used to quantify cellular uptake. […] For experiments including Trf B-27 was omitted, as outlined above. […] All samples were kept on ice until they were analysed on a Guava EasyCyte 8HT (Millipore, Darmstadt, Germany) that automatically retrieves samples from a 96-well plate. In order to exclude effects due to difference in delay time we used mixed order of analysis, loading only a few samples at a time with the remaining samples kept on ice. The cell counting gate was determined using propidium iodide (0.5 µM, not washed away prior to analysis) and calcein-AM (10 nM, 15 min staining) to distinguish live and dead cells, and for each sample 5,000 cells from within the live gate were counted and analysed. HF488, AlexaFluor488, EGFP and calcein-AM were excited by a 488 nm laser and their fluorescence was detected through a 525/30 nm filter. Propidium iodide and mRFP were excited by the 488 nm laser but detected through a 692/46 nm filter. HF647 and AlexaFluor647 were excited with a 635 nm laser and detected through a 661/19 nm filter. Compensation was performed to adjust for bleed through in experiments including mRFP. Mean cellular uptake was estimated as the average fluorescence intensity of all cells gated within the live region and all individual experiments were performed with three technical replicates (n = 3) unless else is stated. The average fluorescence intensity was baseline corrected by subtracting the signal for unstained cells.
Endocytic mechanisms were also perturbed by treatment of cells with pharmacological inhibitors. Stock solutions of cytochalasin A, cytochalasin D, dynasore, wortmannin and IPA-3 were prepared in DMSO and diluted in serum-free cell culture media supplemented with 30 mM HEPES on the day of the experiment. The final DMSO concentration added to the cells was kept <0.1% and matched for the control. […] The cells were centrifuged 1000 * g for 5 min at 4 °C, washed 3x with ice-cold serum-free medium, followed by detachment and immediate flow cytometry analysis, as detailed above. […] Only the live cells were included in the analysis. Trf was used as a positive control for clathrin-mediated endocytosis. Due to the rapid uptake and recycling of internalized Trf we adopted an optimized protocol with sufficiently short Trf incubation times. First, to remove the quantities of membrane-bound Trf that originate from the serum component of the complete culture medium the cells were washed 3x in serum-free medium. The cells were then subjected to the inhibitors as described above and thereafter exposed to a 5 min pulse of 5 µg/ml Trf. To remove externally bound fluorescently labelled Trf the cells were thereafter washed (3x/2 min) in ice-cold acidic buffer (0.1 M Glycine-HCl buffer pH 2.5 with 150 mM NaCl)[35] whilst kept on ice. The cells were then harvested for flow cytometry analysis, and analysed one sample at a time with mixed order of analysis whilst keeping the remaining samples on ice.

[1] = test system: SH-SY5Y cells transfected with Arf6 WT/Q67L; assay: Uptake in cells transfected with Arf6 WT or Q67L (confocal imaging); assay type: cell-based, human; conditions: SH-SY5Y 24 h post transfection, 1 µM HF488-labelled Aβ 24 h, confocal microscopy
Description: The samples were washed 1x in serum free medium prior to incubation with Aβ peptides and/or other reagents also in serum free medium that was supplemented with 30 mM HEPES and 2% B-27. For experiments including Trf B-27 was omitted as it, according to the media formulation provided by the manufacturer, contains unlabelled Trf that interferes with the experiment. Prior to imaging, cells were stained with 50 nM LysoTracker Deep Red for 30 min and 5 µg/ml Hoechst 33342 was added during the last 10 min of incubation. The cells were thereafter washed 1x, treated with 5 µg/ml FM 4–64 and imaged immediately (for labelling of cellular membrane) or after 10 min incubation at 37 °C (for labelling of cellular membrane and endocytic vesicles). […] The scanner unit was mounted onto a Leica DMIRB microscope equipped with an oil immersion 63x NA 1.47 Leica HCX PL APO objective for imaging and co-localisation analysis, or a 40x NA 0.55 Leica N PLAN L CORR air objective for quantification of peptide uptake. The sample was excited and detected sequentially with appropriate excitation laser lines and emission filters. […]

[2] = 1 µM HF488-labelled Aβ 1 h, 4 independent experiments in triplicate
[3] = 30 min pre-incubation, 1 µM Aβ 1 h, n = 3

Row | Substance | effect of CPZ on Aβ uptake (SH-SY5Y cells; [2]) | reduction in Aβ uptake with IPA-3 and wortmannin (SH-SY5Y cells; 10 µM IPA-3 or 25 nM wortmannin, 30 min pre-incubation, 1 µM Aβ 1 h, n = 3) | reduction in Aβ uptake with cytochalasin A or D (SH-SY5Y cells; [3]) | Aβ uptake in Arf6 Q67L versus wild-type Arf6 overexpressing cells [1] | effect of dynasore on Aβ uptake (SH-SY5Y cells; 80 µM dynasore, 30 min pre-incubation, 1 µM HF488-labelled Aβ 1 h, 4 independent experiments in triplicate, ANOVA with Bonferroni)
1 | Aβ(1–40): Synthetic 40 residue amyloid-β peptide conjugated to HiLyte Fluor HF488 (or HF647) at the N-terminus, from Anaspec | reductions | ~ 50% | ~ 30% | no difference | –
2 | Aβ(1–42): Synthetic 42 residue amyloid-β peptide conjugated to HiLyte Fluor HF488 (or HF647) at the N-terminus, from Anaspec | impaired to a greater extent than that of Aβ(1–40) | – | ~ 70% | no difference | statistically significantly reduced
